# Test results published in US20170327556A1, “CARTILAGE-BINDING FUSION PROTEINS” (Merrimack Pharmaceuticals, Inc., priority 2013, published 2017).
# Tests used:
# [1] = ELISA binding of fusion proteins to heparan sulfate coated plates; settings: 6x-Histidine-tagged proteins, FIG. 1A
# Method: (§1) The specificity of binding of fusion proteins to the polysaccharides heparan sulfate and chondroitin sulfate may be determined by measuring the ability of the proteins to bind polysaccharides coated on an ELISA plate. Heparin Binding Plates (BD Biosciences) are coated with 50 μl of 2-10 μg/mL concentration of heparan sulfate or chondroitin sulfate (Sigma-Aldrich®) and incubated overnight at room temperature. Plates are washed with PBS and blocked with 250 μl of 0.2% gelatin in PBS for 1 hour at 37 C. Plates are then washed with PBS and tapped dry. 50 μl of protein in a dilution series is added to the wells and incubated for 2 hours at 37 C. The protein dilution series starts from 100 nM and includes ten additional three-fold dilutions in PBS, 0.2% gelatin and one blank (PBS, 0.2% gelatin only). After the plates are washed in PBS, 50 μl of anti-human IGF-1 (Abcam) at 1:250 in PBST is added and the plates are incubated for 1 hour rotating at room temperature. Plates are washed with PBST and 100 μl of 1:1000 anti-Rabbit-HRP (Cell Signaling Technology®) in PBST is added to each well and the plate is incubated for 1 hour at room temperature. […] The absorbance is measured at 450 nm and the resulting data is analyzed using GraphPad Prism® (GraphPad Software, San Diego, Calif.). […]
# [2] = ELISA binding of fusion proteins to chondroitin sulfate coated plates; settings: 6x-Histidine-tagged proteins, FIG. 1B
# Method: as §1
# BXPC-3 cells = assay: Stimulation of AKT phosphorylation in BXPC-3 cells (pAKT ELISA); assay type: cell-based; settings: 10 min stimulation, doses in M (Table 4), 6x-Histidine-tagged fusion proteins
# Method: (§2) Fusion proteins comprising IGF-1 and a cartilage matrix binding domain were prepared as described above. Six fusion proteins were prepared: GF-Fus1 (6x-Histidine-tagged), GF-Fus2(6x-Histidine-tagged), GF-Fus3 (6x-Histidine-tagged), GF-Fus4 (6x-Histidine-tagged), GF-Fus5 (6x-Histidine-tagged), and GF-Fus6 (6x-Histidine-tagged). In order to ensure that the growth factor portion of the fusion protein was active in the fusion proteins, each construct was tested for its ability to stimulate AKT phosphorylation. Wild-type IGF-1 (wtIGF) was included as a control. Bovine chondrocytes were stimulated with a range of doses of each fusion protein, and pAKT levels were measured by ELISA.
# For ligand stimulation, chondrocytes were seeded at 200,000 cells/well into 96-well tissue culture plates with 100 μL of chondrocyte culture medium with fetal bovine serum (10% v/v, Life Technologies Cat#16140071). Alternatively, BXPC-3 cells, a pancreatic adenocarcinoma cell line (ATCC® CRL-1687™), were seeded at 30,000 cells/well into 96-well tissue culture plates with 100 μL of BXPC-3 medium (RPMI-1640, e.g., ATCC® 30-2001™), with L-glutamine (2 mM), Penicillin-Streptomycin (1×, Gibco® 15140-122), Fetal Bovine Serum (10% v/v, Life Technologies Cat#16140071)). After 24 hrs, both chondrocytes and BXPC-3 cells were rinsed with 100 μL of sterile PBS (pH=7.4) per well and 100 μl of chondrocyte or BXPC-3 culture medium (without fetal bovine serum) was added to the corresponding cell type. After an additional 24 hrs, cells were stimulated with the doses of fusion proteins set forth in Table 4 by adding 25 μL of fusion protein at a concentration 5 times greater than the concentration listed in Table 4 to the 100 μL of medium already in the wells. After 10 min of stimulation, fusion protein was removed and wells were rinsed in ice cold PBS (pH=7.4). 50 μL/well of cell extraction buffer (Invitrogen cat# FNN0011) was added and incubated with shaking at 4° C. for 30 minutes. Lysates were then frozen at −80° C.
# Corning high binding 384 well black ELISA plates (cat#3577) are coated with 30 μL of capture antibody at 4 μg/mL (anti-AKT1 total capture antibody, Upstate, Cat#05-591MG) in PBS (pH=7.4) for 16 hours at room temperature, washed and blocked with […] 2% bovine serum albumin (Sigma Cat# A3294) in PBS (pH=7.4) for 1 hour at room temperature. 20 μL of thawed lysates or recombinant pAKT standards (ten 2-fold serial dilutions of 400 ng recombinant human AKT, active (Upstate, Cat#14-276) in PBS (pH=7.4) containing 50% v/v Cell extraction buffer (Invitrogen Cat#FNN0011), 1% bovine serum albumin (Sigma Cat# A3294), 0.05% Tween20) are applied to the coated plate and incubated for 2 hours at room temperature. After washing 3 times with 100 μL/well of 0.05% Tween-20/PBS (pH=7.4) bound phospho-AKT is detected using Phospho-AKT (Ser473)(587F11)-biotinylated (Cell Signaling, Cat#5102), streptavidin-HRP (R&D Systems Cat# DY998, Part #890803), SuperSignal ELISA PicoChemiluminescent Substrate (Thermo Scientific Cat#37069), using a luminometer to detect light emissions at 425 nm.
# [3] = tested on: AKT phosphorylation in bovine chondrocytes; assay: Stimulation of AKT phosphorylation in primary bovine chondrocytes (pAKT ELISA); assay type: cell-based; settings: 10 min stimulation, doses in M (Table 4), 6x-Histidine-tagged fusion proteins
# Method: as §2
# Bovine chondrocytes are isolated from the femoral chondyles of 2-4 week old bovine calves. Knee joints are mounted by removing all tissue surrounding the femur, removing the femoral head with a bone saw or hack saw, and clamping in a tissue vice. Joints are aseptically opened, removing the patella, tibia and fibula. Using a scalpel, cartilage is sliced off the femoral chondyles and placed in sterile PBS (pH=7.4) containing penicillin-streptomycin (1×, Gibco 15140-122). PBS is subsequently removed and pronase solution (50 mL per 5 g of tissue), consisting of high glucose DMEM (Life Technologies Cat#11965-092), fetal bovine serum (10% v/v, Life Technologies Cat#16140071), HEPES (100 mM, Gibco 15630-080), non-essential amino acids (1×, Sigma M7145), penicillin-streptomycin (1×, Gibco 15140-122), proline (400 μM, Sigma P5607-256), Protease Type XIV (2 mg/mL, Sigma Cat# P5147), is added for 1 hour with stirring. After rinsing twice with sterile PBS (pH=7.4), collagenase solution (50 mL per 5 g of tissue), consisting of high glucose DMEM (Life Technologies Cat#11965-092), fetal bovine serum (10% v/v, Life Technologies Cat#16140071), HEPES (100 mM, Gibco 15630-080), NEAA(1×, Sigma M7145), Penicillin-Streptomycin (1×, Gibco 15140-122), 0.25 mg/mL Collagenase P (Roche Cat#11 249 002 001), is added for 18 hours with stirring. Cell are strained, washed, and resuspended in chondrocyte culture medium (low glucose DMEM (1× Gibco 11885-084), Penicillin-Streptomycin (1×, Gibco 15140-122), non-essential amino acids (1×, Sigma M7145), and HEPES (100 mM, Gibco 15630-080)) with fetal bovine serum (10% v/v, Life Technologies Cat#16140071).
# For ligand stimulation, chondrocytes were seeded at 200,000 cells/well into 96-well tissue culture plates with 100 μL of chondrocyte culture medium with fetal bovine serum (10% v/v, Life Technologies Cat#16140071). […]
# [4] = tested on: bovine cartilage explants; assay: In vitro joint disease model (IL-1), explanted bovine cartilage: sGAG loss; assay type: cell-based; settings: 13.3 nM supplied in every medium change, IL-1, relative to Disease control
# Excerpt: (§3) Bovine cartilage explants (3 mm diameter, 1.2 mm thick) are harvested from the femoral patellar groove of 2-4 week old bovine calves. Knee joints are mounted by removing all tissue surrounding the femur, removing the femoral head with a bone saw or hack saw, and clamping in a tissue vice. Joints are aseptically opened, removing the patella, tibia and fibula. Using a 3 mm diameter disposable biopsy punch, approximately 80×3 mm diameter full thickness cartilage cores are punched from the femoral-patellar groove. A sterile knife is used to slice the cores at the cartilage-bone interface. Cores are then inserted into 3 mm diameter holes in a 1.2 mm thick sterile stainless steel plate and sliced flush with the plate using sterile razor blades to remove the excess core length, resulting in 3 mm diameter, 1.2 mm thick cartilage explants with the superficial zone cartilage intact.
# (§4) Explants are cultured in 96-well plates in 300 μL of medium consisting of low glucose DMEM (1× Gibco 11885-084), Penicillin-Streptomycin (1×, Gibco 15140-122), ascorbic acid (20 μg/mL, Sigma A4403), proline (400 μM, Sigma P5607-256), non-essential amino acids (1×, Sigma M7145), and HEPES (100 mM, Gibco 15630-080). Explants from three animals (n=2-3 per animal) are used in each treatment condition for a total explant number of 8-9 per condition. Medium is changed every 2 days. On days 6 and 10, the medium is supplemented with 5 μCi/mL of ^35S-sodium sulfate (Perkin Elmer NEX041H001MC, 1 mCi).
# (§5) Timepoints are taken at day 8 and 12: explant tissue is washed four times for 30 min each (2 hr total) in 1 mM unlabeled sodium sulfate in PBS. Each explant is weighed wet and frozen at −20° C. until digestion. Tissue digestion was performed with Proteinase K (Roche cat #3115879001) and each explant is digested in 1 mL 100 μg/mL Proteinase K in 50 mM Tris-HCL, 1 mM Calcium Chloride pH=8.0 buffer at 60° C. overnight. Measurement of sGAG content and DNA content is performed using standard assay methods such as those described in Hoemann, 2004, Methods in Molecular Medicine: Cartilage and Osteoarthritis. Totowa, N.J.: Humana Press Inc.; p. 127-52. ^35S-sulfate content of the digested cartilage explants was quantified by mixing 20 μL of digest with 250 μL of scintillation fluid (Perkin Elmer cat #1200-439) and counting with a WALLAC 1450 MICROBETA TRILUX scintillation counter.
# (§6) Treatments were given at the following concentrations: wtIGF-1 13.3 nM=100 ng/mL (IGF-1 R&D systems 291-G1); GF-Fus1 (6x-Histidine tagged) 13.3 nM=135 ng/mL; GF-Fus2 (6x-Histidine tagged) 13.3 nM=140 ng/mL; and GF-Fus3 (6x-Histidine tagged)13.3 nM=181 ng/mL. All treatments included IL-1 and were given for either 4 days or the entire culture duration. The outcomes measured were ^35S-sulfate incorporation, DNA content, and sGAG content of plug at endpoint, and sGAG released to media for all media changes. Controls were either no treatment (Healthy) or IL-1 alone at 1 ng/mL (Disease).
# (§7) FIG. 4 depicts a graph of cartilage matrix loss as measured by the cumulative percentage of total sGAG lost to the culture medium against time (days). Percentage loss is calculated by dividing the cumulative sGAG in the culture medium by the total sGAG present in the medium over the culture period plus the sGAG remaining in the explant at the end of culture. Cartilage matrix loss was reduced by each IGF fusion protein relative to the disease control at a level similar to wild-type IGF. New cartilage matrix synthesis (i.e. sulfated proteoglycan synthesis is measured by ^35S-Sulfate incorporation) during the final 48 hrs of cultures terminated at day 8 and day 12 is shown in FIGS. 5A and 5B, respectively. Cartilage matrix synthesis was increased compared to disease control by all fusion proteins (GF-Fus1, GF-Fus2, and GF-Fus3) and wild-type IGF when the fusion proteins were supplied in every medium change for the entire culture duration of 8 and 12 days (black bars). […]
# [5] = tested on: bovine cartilage explants; assay: In vitro joint disease model (IL-1), explanted bovine cartilage: ^35S-sulfate incorporation; assay type: cell-based; settings: supplied in every medium change for 8 or 12 days, IL-1, final 48 hrs, versus Disease control
# Excerpt: as §3, §4, §5, §6, §7
Substance,binding to heparan sulfate [1],binding to chondroitin sulfate [2],logEC50 Mean (BXPC-3 cells),logEC50 Mean [3],cartilage matrix loss (% sGAG loss) [4],cartilage matrix synthesis (^35S-sulfate incorporation) [5]
GF-Fus4: IGF-1(LR3) fused to Collagen IX HB domain,did not bind,did not bind,−9.133,,,
GF-Fus2: N-terminal Prelp HB domain fused to wild-type IGF,,,,−8.830,reduced,increased
